US20200262813A1, “1,5,7-TRISUBSTITUTED ISOQUINOLINE DERIVATIVES, PREPARATION THEREOF, AND USE THEREOF IN MEDICINES” (SHANGHAI HAIYAN PHARMACEUTICAL TECHNOLOGY CO., LTD., priority 2016, published 2020)

Target: Recombinant PRC2 (EZH2-Y641F) (Homo sapiens, UniProt Q15910, Y641F)
Assay: In vitro methyltransferase activity test (LANCE Ultra);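 further: compounds tested as an 8-point threefold dilution series, fluorescence read after 1 h detection step at room temperature, IC50 derived from a four-parameter curve fit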
Conditions: EZH2 Y641F IC50, Recombinant PRC2 (EZH2-Y641F), LANCE Ultra detection, 3 hours reaction
Procedure: In Vitro Methyltransferase Activity Test
Recombinant PRC2 (EZH2-Y641F) was purchased from Active motif, S-adenosyl-methionine (SAM) and Poly-L-lysine (PLL) were purchased from Sigma-Aldrich, H3(1-50)K27mel polypeptide was purchased from Cisbio. LANCEUltra system (Perkinelmer) was used for detection. In the enzyme activity test, a compound to be tested was 1:3 diluted for 8 gradient points, added into a reaction plate, and then added 100 ng recombinant enzyme. And then a buffer [20 mM Tris pH8.5, 2 mM MgCl2, 0.01% Tween-20, 1 mM TCEP] containing 2.5 M SAM/250 nM H3(1-50)K27mel premixture was added to conduct an enzyme reaction at room tempreture. After reacted for 3 hours, a dection solution containing premixed PLL, detection antibody and Ulight was added, reacted for 1 h at RT, then fluorescence was read on Tecan infinite pro. IC50s were calculated by four-factor model fitting in a XLfit software.

Chain of Recombinant PRC2 (EZH2-Y641F) (Q15910 whole entry Y641F): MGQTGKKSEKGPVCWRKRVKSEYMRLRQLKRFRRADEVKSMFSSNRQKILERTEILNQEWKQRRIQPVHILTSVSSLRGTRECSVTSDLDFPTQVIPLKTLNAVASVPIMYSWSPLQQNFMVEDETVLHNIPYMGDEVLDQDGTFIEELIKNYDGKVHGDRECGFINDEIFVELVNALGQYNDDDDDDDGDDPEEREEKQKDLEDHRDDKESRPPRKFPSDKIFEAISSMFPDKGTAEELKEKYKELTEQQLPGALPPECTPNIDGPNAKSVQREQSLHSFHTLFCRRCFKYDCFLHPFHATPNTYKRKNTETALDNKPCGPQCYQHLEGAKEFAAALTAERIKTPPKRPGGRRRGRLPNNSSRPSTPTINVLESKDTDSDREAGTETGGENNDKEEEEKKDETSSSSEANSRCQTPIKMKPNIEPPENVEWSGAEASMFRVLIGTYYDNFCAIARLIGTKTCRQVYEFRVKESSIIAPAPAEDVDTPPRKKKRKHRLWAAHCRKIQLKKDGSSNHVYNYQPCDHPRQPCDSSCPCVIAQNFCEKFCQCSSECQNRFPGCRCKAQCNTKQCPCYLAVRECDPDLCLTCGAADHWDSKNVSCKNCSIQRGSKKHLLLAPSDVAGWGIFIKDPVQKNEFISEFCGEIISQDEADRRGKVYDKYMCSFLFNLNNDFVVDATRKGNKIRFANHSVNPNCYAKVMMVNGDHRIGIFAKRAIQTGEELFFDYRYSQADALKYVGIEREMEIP
Chain of Recombinant PRC2 (EZH2-Y641F) (O75530 whole entry partner): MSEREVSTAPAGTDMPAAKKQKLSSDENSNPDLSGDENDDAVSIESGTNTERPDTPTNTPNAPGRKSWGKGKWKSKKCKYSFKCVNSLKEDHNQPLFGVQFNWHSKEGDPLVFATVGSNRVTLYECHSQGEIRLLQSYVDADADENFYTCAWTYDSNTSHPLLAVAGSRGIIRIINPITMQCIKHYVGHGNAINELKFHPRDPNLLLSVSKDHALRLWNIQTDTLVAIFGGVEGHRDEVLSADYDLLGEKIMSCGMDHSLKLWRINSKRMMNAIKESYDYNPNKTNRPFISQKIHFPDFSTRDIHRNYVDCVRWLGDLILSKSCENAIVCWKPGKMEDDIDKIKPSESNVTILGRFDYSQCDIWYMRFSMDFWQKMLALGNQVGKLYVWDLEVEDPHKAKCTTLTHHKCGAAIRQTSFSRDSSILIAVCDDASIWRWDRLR
Chain of Recombinant PRC2 (EZH2-Y641F) (Q15022 whole entry partner): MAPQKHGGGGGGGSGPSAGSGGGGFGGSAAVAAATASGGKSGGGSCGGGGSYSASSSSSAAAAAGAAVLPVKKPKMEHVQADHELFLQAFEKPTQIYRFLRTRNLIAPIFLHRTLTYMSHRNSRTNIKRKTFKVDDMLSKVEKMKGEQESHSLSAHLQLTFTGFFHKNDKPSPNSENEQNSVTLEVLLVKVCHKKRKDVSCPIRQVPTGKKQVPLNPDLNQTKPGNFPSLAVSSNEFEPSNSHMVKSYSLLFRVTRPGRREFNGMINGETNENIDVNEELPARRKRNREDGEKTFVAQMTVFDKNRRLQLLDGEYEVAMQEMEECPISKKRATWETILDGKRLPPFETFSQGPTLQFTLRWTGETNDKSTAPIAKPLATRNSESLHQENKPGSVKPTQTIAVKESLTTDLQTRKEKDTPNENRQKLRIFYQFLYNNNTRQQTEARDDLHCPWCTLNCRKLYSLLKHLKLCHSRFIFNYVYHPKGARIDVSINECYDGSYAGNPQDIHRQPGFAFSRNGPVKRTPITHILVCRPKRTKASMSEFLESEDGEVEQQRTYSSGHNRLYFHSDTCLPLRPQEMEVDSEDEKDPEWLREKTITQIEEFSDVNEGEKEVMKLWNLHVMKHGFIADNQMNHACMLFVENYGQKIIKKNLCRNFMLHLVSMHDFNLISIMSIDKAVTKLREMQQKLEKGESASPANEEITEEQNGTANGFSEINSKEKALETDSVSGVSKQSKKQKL
Chain of Recombinant PRC2 (EZH2-Y641F) (Q09028 whole entry partner): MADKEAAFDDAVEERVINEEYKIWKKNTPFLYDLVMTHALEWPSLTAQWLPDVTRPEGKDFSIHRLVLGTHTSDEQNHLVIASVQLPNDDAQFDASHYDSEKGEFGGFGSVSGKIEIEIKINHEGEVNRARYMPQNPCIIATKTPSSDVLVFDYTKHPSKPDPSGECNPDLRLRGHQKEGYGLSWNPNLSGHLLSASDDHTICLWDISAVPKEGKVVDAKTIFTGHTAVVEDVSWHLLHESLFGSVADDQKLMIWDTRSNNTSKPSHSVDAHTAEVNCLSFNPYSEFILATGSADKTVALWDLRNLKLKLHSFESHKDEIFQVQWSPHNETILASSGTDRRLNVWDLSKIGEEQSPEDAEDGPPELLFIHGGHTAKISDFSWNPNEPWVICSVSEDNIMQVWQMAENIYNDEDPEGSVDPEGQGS
Chain of Recombinant PRC2 (EZH2-Y641F) (Q6ZN18 whole entry partner): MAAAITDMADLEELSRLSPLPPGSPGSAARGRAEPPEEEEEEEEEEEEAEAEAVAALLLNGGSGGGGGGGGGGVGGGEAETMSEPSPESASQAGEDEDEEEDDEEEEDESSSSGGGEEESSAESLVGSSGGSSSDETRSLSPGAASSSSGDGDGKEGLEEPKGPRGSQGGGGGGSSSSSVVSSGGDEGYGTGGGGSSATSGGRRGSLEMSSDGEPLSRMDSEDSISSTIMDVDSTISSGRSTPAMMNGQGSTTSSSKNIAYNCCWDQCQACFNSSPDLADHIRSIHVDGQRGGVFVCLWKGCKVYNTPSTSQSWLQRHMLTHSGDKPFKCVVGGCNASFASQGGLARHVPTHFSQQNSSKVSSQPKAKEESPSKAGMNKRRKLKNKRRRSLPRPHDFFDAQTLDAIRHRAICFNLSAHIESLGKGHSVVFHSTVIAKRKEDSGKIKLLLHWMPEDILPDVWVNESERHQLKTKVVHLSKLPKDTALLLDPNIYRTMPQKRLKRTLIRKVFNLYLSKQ

Compound	IC50 [nM]
CCN(c1cc(-c2cncc(C(F)(F)F)c2)cc2c(NCc3c(C)cc(C)[nH]c3=O)nccc12)[C@H]1CC[C@H](N(C)C)CC1 [Compound Z-77]	177
CCN(c1cc(-c2ccc(Oc3cccnc3)cc2)cc2c(NCc3c(C)cc(C)[nH]c3=O)nccc12)C1CCC(N(C)C)CC1 (stereo not drawn) [Compound Z-78]	198
CCN(c1cc(-c2cnn(C3CCN(C)CC3)c2)cc2c(NCc3c(C)cc(C)[nH]c3=O)nccc12)C1CCC(N(C)C)CC1 (stereo not drawn) [Compound Z-79]	45
CCN(c1cc(-c2ccc(N3CCN(C)CC3)c(F)c2)cc2c(NCc3c(C)cc(C)[nH]c3=O)nccc12)C1CCC(N(C)C)CC1 (stereo not drawn) [Compound Z-80]	26
CCN(c1cc(-c2ccc(N3CCN(C)CC3)nc2)cc2c(NCc3c(C)cc(C)[nH]c3=O)nccc12)C1CCN(CCOC)CC1 [Compound Z-81]	53
CCN(c1cc(-c2ccc(Oc3ccncc3)cc2)cc2c(NCc3c(C)cc(C)[nH]c3=O)nccc12)C1CCC(N(C)C)CC1 (stereo not drawn) [Compound Z-83]	244
CCN(c1cc(-c2ccc(CN3CCN(C)CC3)nc2)cc2c(NCc3c(C)cc(C)[nH]c3=O)nccc12)C1CCN(C2CC2)CC1 [Compound Z-84]	83
CCN(c1cc(-c2ccc(N3CCOCC3)nc2)cc2c(NCc3c(C)cc(C)[nH]c3=O)nccc12)C1CCN(C2CC2)CC1 [Compound Z-87]	474
CCN(c1cc(-c2ccc(CN3CCOCC3)cc2)cc2c(NCc3c(C)cc(C)[nH]c3=O)nccc12)C1CCC(O)CC1 (stereo not drawn) [Compound Z-88]	164
C=C(C)c1cc(N(CC)C2CCC(N(C)C)CC2)c2ccnc(NCc3c(C)cc(C)[nH]c3=O)c2c1 (stereo not drawn) [Compound Z-109]	182
CCN(c1cc(-c2ccc(C(=O)Nc3ccccn3)cc2)cc2c(NCc3c(C)cc(C)[nH]c3=O)nccc12)C1CCC(N(C)C)CC1 (stereo not drawn) [Compound Z-110]	67
CCN(c1cc(-c2nccn2C)cc2c(NCc3c(C)cc(C)[nH]c3=O)nccc12)C1CCOCC1 [Compound Z-117]	348
CCN(c1cc(-c2ccc(C(=O)N3CCOCC3)nc2)cc2c(NCc3c(C)cc(C)[nH]c3=O)nccc12)C1CCN(C(C)C)CC1 [Compound Z-123]	75
CCN(c1cc(-c2ccc(C(=O)N3CCN(C)CC3)nc2)cc2c(NCc3c(C)cc(C)[nH]c3=O)nccc12)C1CCN(C(C)C)CC1 [Compound Z-124]	51
CCN(c1cc(-c2ccc(CN(C)C)nc2)cc2c(NCc3c(C)cc(C)[nH]c3=O)nccc12)C1CCC(N(C)C)CC1 (stereo not drawn) [Compound Z-128]	225
CCN(c1cc(C(F)(F)F)cc2c(NCc3c(C)cc(C)[nH]c3=O)nccc12)C1CCC(N(C)C)CC1 (stereo not drawn) [Compound Z-134]	117
CCN(c1cc(Cl)cc2c(NCc3c(C)cc(C)[nH]c3=O)nccc12)C1CCS(=O)(=O)CC1 [Compound Z-139]	418
CCN(c1cc(Cl)cc2c(NCc3c(C)cc(C)[nH]c3=O)nccc12)C1CCN(C(C)=O)CC1 [Compound Z-144]	152
CCN(c1cc(Cl)cc2c(NCc3c(C)cc(C)[nH]c3=O)nccc12)C1CCC(N(C)CCOC)CC1 (stereo not drawn) [Compound Z-145]	203
CCN(c1cc(Cl)cc2c(NCc3c(C)cc(C)nc3O)nccc12)[C@H]1CC[C@H](N2CC(OC)C2)CC1 [Compound Z-149]	159
CCN(c1cc(-c2ccc(N3CCNCC3)nc2)cc2c(NCc3c(C)cc(C)[nH]c3=O)nccc12)C1CCOCC1 [Compound Z-151]	50
CCN(c1cc(-c2ccc(CN3CCNCC3)nc2)cc2c(NCc3c(C)cc(C)[nH]c3=O)nccc12)C1CCOCC1 [Compound Z-152]	96
CCN(c1cc(-c2ccc(CN3CCNCC3)cc2)cc2c(NCc3c(C)cc(C)[nH]c3=O)nccc12)C1CCC(N(C)C)CC1 (stereo not drawn) [Compound Z-153]	54
CCN(c1cc(-c2ccc(CN3CCNCC3)nc2)cc2c(NCc3c(C)cc(C)[nH]c3=O)nccc12)C1CCC(N(C)C)CC1 (stereo not drawn) [Compound Z-154]	19

Continued, values first:

IC50 [nM]	Compound
159	CCN(c1cc(-c2cn[nH]c2)cc2c(NCc3c(C)cc(C)[nH]c3=O)nccc12)C1CCC(N(C)C)CC1 (stereo not drawn) [Compound Z-155]
37	CCN(c1cc(-c2ccc(N3CCNCC3)nc2)cc2c(NCc3c(C)cc(C)[nH]c3=O)nccc12)C1CCC(NC(C)=O)CC1 (stereo not drawn) [Compound Z-156]
16	CCN(c1cc(-c2ccc(N3CCNCC3)nc2)cc2c(NCc3c(C)cc(C)[nH]c3=O)nccc12)C1CCC(N(C)C)CC1 (stereo not drawn) [Compound Z-157]
367	CCN(c1cc(-c2ccc(NC3CCN(C)CC3)cc2)cc2c(NCc3c(C)cc(C)[nH]c3=O)nccc12)C1CCOCC1 [Compound Z-158]
21	CCN(c1cc(-c2ccc(N3CCNCC3)nc2)cc2c(NCc3c(C)cc(C)[nH]c3=O)nccc12)C1CCC(O)CC1 (stereo not drawn) [Compound Z-159]
6	CCN(c1cc(-c2cnc(N3CCNCC3)nc2)cc2c(NCc3c(C)cc(C)[nH]c3=O)nccc12)[C@H]1CC[C@H](N(C)C)CC1 [Compound Z-160]
331	CCN(c1cc(C(=O)NC)cc2c(NCc3c(C)cc(C)[nH]c3=O)nccc12)C1CCOCC1 [Compound Z-161]
253	CCN(c1cc(C(=O)Nc2cccnc2)cc2c(NCc3c(C)cc(C)[nH]c3=O)nccc12)C1CCOCC1 [Compound Z-162]
33	CCN(c1cc(C(=O)NC2CCN(C)CC2)cc2c(NCc3c(C)cc(C)[nH]c3=O)nccc12)C1CCOCC1 [Compound Z-163]
371	CCN(c1cc(C(=O)Nc2ccccn2)cc2c(NCc3c(C)cc(C)[nH]c3=O)nccc12)C1CCOCC1 [Compound Z-164]
15	CCN(c1cc(C(=O)NC)cc2c(NCc3c(C)cc(C)[nH]c3=O)nccc12)[C@H]1CC[C@H](N(C)C)CC1 [Compound Z-166]
453	CCN(c1cc(C(=O)N2CCOCC2)cc2c(NCc3c(C)cc(C)[nH]c3=O)nccc12)C1CCOCC1 [Compound Z-167]
451	CCN(c1cc(C(=O)N(C)C2CCN(C)CC2)cc2c(NCc3c(C)cc(C)[nH]c3=O)nccc12)C1CCOCC1 [Compound Z-169]
374	CCN(c1cc(C(=O)N(C)C)cc2c(NCc3c(C)cc(C)[nH]c3=O)nccc12)[C@H]1CC[C@H](N(C)C)CC1 [Compound Z-170]
81	CCN(c1cc(C(=O)NC2CCN(C)CC2)cc2c(NCc3c(C)cc(C)[nH]c3=O)nccc12)C1CCC(N(C)C)CC1 (stereo not drawn) [Compound Z-172]
182	CCN(c1cc(Cl)cc2c(NCc3c(C)cc(C)[nH]c3=O)nccc12)C1CCN(C(=O)CC#N)CC1 [Compound Z-175]
139	CCN(c1cc(Cl)cc2c(NCc3c(C)cc(C)[nH]c3=O)nccc12)C1CCN(C(=O)CO)CC1 [Compound Z-176]
348	CCN(c1cc(C#CCN2CCOCC2)cc2c(NCc3c(C)cc(C)[nH]c3=O)nccc12)C1CCOCC1 [Compound Z-178]
226	CCN(c1cc(C#CCN2CCOCC2)cc2c(NCc3c(C)cc(C)[nH]c3=O)nccc12)C1CCN(C(C)=O)CC1 [Compound Z-181]
504	CCN(c1cc(Nc2cccnc2)cc2c(NCc3c(C)cc(C)[nH]c3=O)nccc12)[C@H]1CC[C@H](N(C)C)CC1 [Compound Z-182]
213	CCN(c1cc(N2CCN(C)CC2)cc2c(NCc3c(C)cc(C)[nH]c3=O)nccc12)C1CCC(N(C)C)CC1 (stereo not drawn) [Compound Z-187]
